Reference: the supplement of paper PMC10627819

Key:
Experiment in all cases: Bliss interaction score (quartile over a dose matrix) (fitness difference); higher = more antagonism (negative = synergy)
[1] = test system: S. aureus Newman
Summary of the method: (§1)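 Growth was read as OD595 when cultures entered stationary phase, and each value was divided by the plate's robust no-drug mean and capped at 1. This normalised ratio is the fitness value, and fitness for each single drug came from the combination data. The Bliss score subtracts the expected fitness, taken as the product, from the observed fitness and is given as quartiles across technical, biological and donor/recipient replicates.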

[2] = test system: S. aureus DSM 20231
Summary of the method: as §1

[3] = test system: B. subtilis 168
Summary of the method: as §1

[4] = test system: S. pneumoniae D39V
Summary of the method: as §1
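Also: first quartile when negative (synergy) and third quartile when positive (antagonism).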

SMILES	Bliss interaction score ([1]; main component drawn)	Bliss interaction score ([2]; main component drawn)	Bliss interaction score ([3]; main component drawn)	Bliss interaction score ([4]; main component drawn)	Bliss interaction score [1]	Bliss interaction score [2]	Bliss interaction score [3]	Bliss interaction score [4]
N#CC(C#N)=NNc1cccc(Cl)c1 [CCCP] + CCC(C)C1C(=O)NC(=C)C(=O)NC(C(=O)NC(CSCC(C(=O)N1)NC(=O)/C(=C/C)/NC(=O)C(C(C)CC)N)C(=O)NC2C(SCC(NC(=O)CNC(=O)C3CCCN3C2=O)C(=O)NC(CCCCN)C(=O)NC4C(SCC(NC(=O)CNC(=O)C(NC(=O)C(NC(=O)C(NC(=O)CNC4=O)C)CC(C)C)CCSC)C(=O)NC(CC(=O)N)C(=O)NC(CCSC)C(=O)NC(CCCCN)C(=O)NC5C(SCC6C(=O)NC(C(=O)NC(CSC(C(C(=O)N6)NC(=O)C(NC5=O)C)C)C(=O)NC(CO)C(=O)NC(C(C)CC)C(=O)NC(CC7=CN=CN7)C(=O)NC(C(C)C)C(=O)NC(=C)C(=O)NC(CCCCN)C(=O)O)CC8=CN=CN8)C)C)C)CC(C)C [Nisin]	-0.0401	0.0712	0.0522	-0.0317	–	–	–	–
CC(=O)Oc1ccccc1C(=O)O [Acetylsalicylicacid] + CC[C@H]1OC(=O)[C@H](C)C(=O)[C@H](C)[C@@H](O[C@@H]2O[C@H](C)C[C@H](N(C)C)[C@H]2O)[C@](C)(OC)C[C@@H](C)C(=O)[C@H](C)[C@H]2N(CCCCn3cnc(-c4cccnc4)c3)C(=O)O[C@]12C [Telithromycin]	–	–	–	–	0.0539	0.0695	0.205	-0.043
Cc1ncc([N+](=O)[O-])n1CCO [Metronidazole] + Clc1ccc(COC(Cn2ccnc2)c2ccc(Cl)cc2Cl)c(Cl)c1 [Miconazole]	–	–	–	–	0.0522	0.0327	0.0471	0.0478
CO/N=C(\C(=O)N[C@@H]1C(=O)N2C(C(=O)O)=C(COC(N)=O)CS[C@H]12)c1ccco1 [Cefuroxime] + C[C@@H](O)[C@H]1C(=O)N2C(C(=O)O)=C(SCCNC=N)C[C@H]12 [Imipenem]	–	–	–	–	-0.0353	0.145	0.0678	0.0481
CO/N=C(\C(=O)N[C@@H]1C(=O)N2C(C(=O)O)=C(COC(C)=O)CS[C@H]12)c1csc(N)n1 [Cefotaxime] + CO[C@@]12[C@H](COC(N)=O)C3=C(C(=O)C(C)=C(N)C3=O)N1C[C@@H]1N[C@@H]12 [MitomycinC]	–	–	–	–	0.0256	0.0387	-0.135	0.118
O=C(O)c1cn(C2CC2)c2cc(N3CCNCC3)c(F)cc2c1=O [Ciprofloxacin] + Oc1cc(Cl)ccc1Oc1ccc(Cl)cc1Cl [Triclosan]	–	–	–	–	-0.0217	0.0355	-0.0391	0.0508
CC1(C)S[C@@H]2[C@H](NC(=O)Cc3ccccc3)C(=O)N2[C@H]1C(=O)O [PenicillinG] + Cn1nnc(-c2ccc(-c3ccc(N4C[C@H](CO)OC4=O)cc3F)cn2)n1 [Tedizolid]	–	–	–	–	-0.0888	0.057	0.0625	0.106
CC(=O)Oc1ccccc1C(=O)O [Acetylsalicylicacid] + CC1=C(C(=O)O)N2C(=O)[C@@H](NC(=O)[C@H](N)c3ccccc3)[C@H]2SC1 [Cephalexin]	–	–	–	–	0.0494	0.0849	0.108	0.241
CC(=O)Oc1ccccc1C(=O)O [Acetylsalicylicacid] + O=C(O)c1cn(C2CC2)c2cc(N3CCNCC3)c(F)cc2c1=O [Ciprofloxacin]	–	–	–	–	0.158	0.142	0.146	0.144
CC(=O)Oc1ccccc1C(=O)O [Acetylsalicylicacid] + CCC[C@@H]1C[C@@H](C(=O)N[C@@H]([C@H]2O[C@H](SC)[C@H](O)[C@@H](O)[C@H]2O)[C@H](C)Cl)N(C)C1 [Clindamycin]	–	–	–	–	0.0829	0.0574	0.0404	-0.105
CC(=O)Oc1ccccc1C(=O)O [Acetylsalicylicacid] + CC1(C)S[C@@H]2[C@H](NC(=O)Cc3ccccc3)C(=O)N2[C@H]1C(=O)O [PenicillinG]	–	–	–	–	0.0702	0.101	0.117	-0.0595
COc1ccc(C[C@H](N)C(=O)N[C@H]2[C@@H](O)[C@H](n3cnc4c(N(C)C)ncnc43)O[C@@H]2CO)cc1 [Puromycin] + CC[C@H]1OC(=O)[C@H](C)C(=O)[C@H](C)[C@@H](O[C@@H]2O[C@H](C)C[C@H](N(C)C)[C@H]2O)[C@](C)(OC)C[C@@H](C)C(=O)[C@H](C)[C@H]2N(CCCCn3cnc(-c4cccnc4)c3)C(=O)O[C@]12C [Telithromycin]	–	–	–	–	-0.0571	0.045	0.0276	-0.0651
N#CC(C#N)=NNc1cccc(Cl)c1 [CCCP] + CO/N=C(\C(=O)N[C@@H]1C(=O)N2C(C(=O)[O-])=C(C[N+]3(C)CCCC3)CS[C@H]12)c1csc(N)n1 [Cefepime]	–	–	–	–	0.0498	0.1	0.0769	-0.0827
CN(C)[C@@H]1C(O)=C(C(N)=O)C(=O)[C@@]2(O)C(O)=C3C(=O)c4c(O)ccc(Cl)c4[C@@](C)(O)[C@H]3C[C@@H]12 [Clortetracycline] + CCN(CC)CCOC(=O)c1ccc(N)cc1 [Procaine]	–	–	–	–	0.0501	-0.0714	0.0759	-0.0498
CC(=O)Oc1ccccc1C(=O)O [Acetylsalicylicacid] + O=C(O[C@@H]1Cc2c(O)cc(O)cc2O[C@@H]1c1cc(O)c(O)c(O)c1)c1cc(O)c(O)c(O)c1 [EGCG]	–	–	–	–	0.0426	0.159	0.141	-0.0702
CN(C)[C@@H]1C(O)=C(C(N)=O)C(=O)[C@@]2(O)C(O)=C3C(=O)c4c(O)ccc(Cl)c4[C@@](C)(O)[C@H]3C[C@@H]12 [Clortetracycline] + Clc1ccc(COC(Cn2ccnc2)c2ccc(Cl)cc2Cl)c(Cl)c1 [Miconazole]	–	–	–	–	0.0716	0.0511	0.0788	0.0793
CC(=O)Oc1ccccc1C(=O)O [Acetylsalicylicacid] + C[C@H]1c2cccc(O)c2C(=O)C2=C(O)[C@]3(O)C(=O)C(C(N)=O)=C(O)[C@@H](N(C)C)[C@@H]3[C@@H](O)[C@@H]21 [Doxycycline]	–	–	–	–	0.0416	-0.0455	-0.164	0.1

SMILES	Bliss interaction score ([1]; main component drawn)	Bliss interaction score ([2]; main component drawn)	Bliss interaction score ([3]; main component drawn)	Bliss interaction score ([4]; main component drawn)	Bliss interaction score [1]	Bliss interaction score [2]	Bliss interaction score [3]	Bliss interaction score [4]
CC(=O)Oc1ccccc1C(=O)O [Acetylsalicylicacid] + CCC[C@@H]1C[C@@H](C(=O)N[C@@H]([C@H]2O[C@H](SC)[C@H](O)[C@@H](O)[C@H]2O)[C@@H](C)O)N(C)C1 [Lincomycin]	–	–	–	–	0.0556	0.199	-0.0832	0.0801
C[C@@H]1O[C@@H]1P(=O)(O)O [Fosfomycin] + CC1(C)S[C@@H]2[C@H](NC(=O)Cc3ccccc3)C(=O)N2[C@H]1C(=O)O [PenicillinG]	–	–	–	–	0.0465	-0.136	-0.0401	-0.0713
N#CC(C#N)=NNc1cccc(Cl)c1 [CCCP] + C/C(=C\C(=O)OCCCCCCCCC(=O)O)C[C@@H]1OC[C@H](C[C@@H]2O[C@H]2[C@@H](C)[C@H](C)O)[C@@H](O)[C@H]1O [Pseudomonic acid]	–	–	–	–	-0.0111	0.0141	-0.137	0.0939
Cc1ncc([N+](=O)[O-])n1CCO [Metronidazole] + CN[C@H](CC(C)C)C(=O)N[C@H]1C(=O)N[C@@H](CC(N)=O)C(=O)N[C@H]2C(=O)N[C@H]3C(=O)N[C@H](C(=O)N[C@H](C(=O)O)c4cc(O)cc(O)c4-c4cc3ccc4O)[C@H](O[C@H]3C[C@](C)(N)[C@@H](O)[C@H](C)O3)c3ccc(c(Cl)c3)Oc3cc2cc(c3O[C@@H]2O[C@H](CO)[C@@H](O)[C@H](O)[C@H]2O[C@H]2C[C@](C)(NCc3ccc(-c4ccc(Cl)cc4)cc3)[C@@H](O)[C@H](C)O2)Oc2ccc(cc2Cl)[C@H]1O [Oritavancin]	–	–	–	–	0.0752	0.0377	-0.0222	-0.0396
CO/N=C(\C(=O)N[C@@H]1C(=O)N2C(C(=O)O)=C(COC(C)=O)CS[C@H]12)c1csc(N)n1 [Cefotaxime] + CN(C)[C@@H]1C(O)=C(C(N)=O)C(=O)[C@@]2(O)C(O)=C3C(=O)c4c(O)ccc(Cl)c4[C@@](C)(O)[C@H]3C[C@@H]12 [Clortetracycline]	–	–	–	–	0.0483	0.0917	0.0481	0.0665
CN(C)[C@@H]1C(O)=C(C(N)=O)C(=O)[C@@]2(O)C(O)=C3C(=O)c4c(O)ccc(Cl)c4[C@@](C)(O)[C@H]3C[C@@H]12 [Clortetracycline] + CN(C)c1cc(NC(=O)CNC(C)(C)C)c(O)c2c1C[C@H]1C[C@H]3[C@H](N(C)C)C(O)=C(C(N)=O)C(=O)[C@@]3(O)C(O)=C1C2=O [Tigecycline]	–	–	–	–	-0.0522	-0.14	0.0768	-0.0325
CO/N=C(\C(=O)N[C@@H]1C(=O)N2C(C(=O)O)=C(COC(C)=O)CS[C@H]12)c1csc(N)n1 [Cefotaxime] + O=C(O)[C@H]1/C(=C/CO)O[C@@H]2CC(=O)N21 [Clavulanic]	–	–	–	–	0.279	0.176	-0.0436	-0.0534
CC(=O)Oc1ccccc1C(=O)O [Acetylsalicylicacid] + CC[C@H]1OC(=O)[C@H](C)[C@@H](O[C@H]2C[C@@](C)(OC)[C@@H](O)[C@H](C)O2)[C@H](C)[C@@H](O[C@@H]2O[C@H](C)C[C@H](N(C)C)[C@H]2O)[C@](C)(O)C[C@@H](C)CN(C)[C@H](C)[C@@H](O)[C@]1(C)O [Azithromycin]	–	–	–	–	0.105	0.179	0.153	0.0486
O=C(O)c1cn(C2CC2)c2cc(N3CCNCC3)c(F)cc2c1=O [Ciprofloxacin] + CC[C@H]1OC(=O)[C@H](C)C(=O)[C@H](C)[C@@H](O[C@@H]2O[C@H](C)C[C@H](N(C)C)[C@H]2O)[C@](C)(OC)C[C@@H](C)C(=O)[C@H](C)[C@H]2N(CCCCn3cnc(-c4cccnc4)c3)C(=O)O[C@]12C [Telithromycin]	–	–	–	–	0.0334	0.0454	0.149	0.0763
CO/N=C(\C(=O)N[C@@H]1C(=O)N2C(C(=O)O)=C(COC(N)=O)CS[C@H]12)c1ccco1 [Cefuroxime] + Clc1ccc(COC(Cn2ccnc2)c2ccc(Cl)cc2Cl)c(Cl)c1 [Miconazole]	–	–	–	–	0.025	0.112	0.0653	0.0717
N#CC(C#N)=NNc1cccc(Cl)c1 [CCCP] + O=C1CN(/N=C/c2ccc([N+](=O)[O-])o2)C(=O)N1 [Nitrofurantoin]	–	–	–	–	-0.0479	-0.0278	-0.0566	-0.109
CC(=O)Oc1ccccc1C(=O)O [Acetylsalicylicacid] + CC1(C)S[C@@H]2[C@H](NC(=O)[C@H](N)c3ccc(O)cc3)C(=O)N2[C@H]1C(=O)O [Amoxicillin]	–	–	–	–	-0.0753	0.078	0.192	0.0431
CC(=O)Oc1ccccc1C(=O)O [Acetylsalicylicacid] + Cc1onc(-c2ccccc2)c1C(=O)N[C@@H]1C(=O)N2[C@@H]1SC(C)(C)[C@@H]2C(=O)O [Oxacillin]	–	–	–	–	0.0916	0.113	0.0506	0.0623
COc1cccc2c1C(=O)c1c(O)c3c(c(O)c1C2=O)C[C@@](O)(C(=O)CO)C[C@@H]3O[C@H]1C[C@H](N)[C@H](O)[C@H](C)O1 [Doxorubicin] + Oc1cc(Cl)ccc1Oc1ccc(Cl)cc1Cl [Triclosan]	–	–	–	–	-0.0426	-0.0295	-0.0317	-0.0416
N#CC(C#N)=NNc1cccc(Cl)c1 [CCCP] + Oc1cc(Cl)ccc1Oc1ccc(Cl)cc1Cl [Triclosan]	–	–	–	–	-0.021	0.0338	0.0443	0.0866
CC(=O)Oc1ccccc1C(=O)O [Acetylsalicylicacid] + CC[C@H](C)[C@H](N)C1=N[C@H](C(=O)N[C@@H](CC(C)C)C(=O)N[C@H](CCC(=O)O)C(=O)N[C@H](C(=O)N[C@H]2CCCCNC(=O)[C@H](CC(N)=O)NC(=O)[C@@H](CC(=O)O)NC(=O)[C@H](Cc3cnc[nH]3)NC(=O)[C@@H](Cc3ccccc3)NC(=O)[C@H]([C@@H](C)CC)NC(=O)[C@@H](CCCN)NC2=O)[C@@H](C)CC)CS1 [Bacitracin]	-0.0752	0.0276	0.123	0.165	–	–	–	–
N#CC(C#N)=NNc1cccc(Cl)c1 [CCCP] + CCC[C@@H]1C[C@@H](C(=O)N[C@@H]([C@H]2O[C@H](SC)[C@H](O)[C@@H](O)[C@H]2O)[C@@H](C)O)N(C)C1 [Lincomycin]	–	–	–	–	0.116	-0.0627	-0.0311	0.0513
